# In patent US9890152B2 (Genentech, Inc., priority 2012, dated 2018):
# Target: T1, EGFR del746-750 T790M (Homo sapiens, UniProt P00533, DEL746-750/T790M)
# T1 construct: purchased Carna Biosciences 08-528
# Experiment: EGFR del746-750 T790M biochemical assay (Caliper mobility shift)
# Conditions: 5 μM ATP, 30 min, room temperature; apparent Ki (Morrison) converted by Cheng-Prusoff, Km of ATP 2.1 μM; read-out: EGFR(T790M/d746-750) Ki
# T1 sequence (P00533 with tags, fused parts or gaps DEL746-750/T790M limits assumed): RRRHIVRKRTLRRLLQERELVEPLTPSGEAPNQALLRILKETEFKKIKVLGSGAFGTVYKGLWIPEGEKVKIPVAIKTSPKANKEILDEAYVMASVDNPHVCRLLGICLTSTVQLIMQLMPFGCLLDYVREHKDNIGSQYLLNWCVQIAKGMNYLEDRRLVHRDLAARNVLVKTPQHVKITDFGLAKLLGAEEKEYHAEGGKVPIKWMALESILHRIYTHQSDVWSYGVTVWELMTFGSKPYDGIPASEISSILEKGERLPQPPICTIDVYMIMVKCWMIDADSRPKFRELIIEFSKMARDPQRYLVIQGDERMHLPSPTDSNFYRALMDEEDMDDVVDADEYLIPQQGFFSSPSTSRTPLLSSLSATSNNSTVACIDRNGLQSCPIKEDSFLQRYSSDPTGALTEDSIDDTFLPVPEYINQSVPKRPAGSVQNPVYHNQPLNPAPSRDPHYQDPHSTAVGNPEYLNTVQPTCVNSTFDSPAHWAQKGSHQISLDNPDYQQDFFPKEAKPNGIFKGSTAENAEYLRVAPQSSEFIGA
row,Structure (SMILES),Ki
1,"CCS(=O)(=O)n1cc(-c2nccc(Nc3cc4c(cn3)c(C(=O)NC3COC3)cn4C(C)C)n2)cn1 [Example 448, 6-(2-(1-(ethylsulfonyl)-1H-pyrazol-4-yl)pyrimidin-4-ylamino)-1-isopropyl-N-(oxetan-3-yl)-1H-pyrrolo[3,2-c]pyridine-3-carboxamide]",0.62 nM
2,"CC(C)n1cc(C(=O)NC2CCSCC2)c2cnc(Nc3ccnc(-c4cnn(S(=O)(=O)C5CC5)c4)n3)cc21 [Example 458, 6-(2-(1-(cyclopropylsulfonyl)-1H-pyrazol-4-yl)pyrimidin-4-ylamino)-1-isopropyl-N-(tetrahydro-2H-thiopyran-4-yl)-1H-pyrrolo[3,2-c]pyridine-3-carboxamide]",1.35 nM
3,"Cc1nc2cnc(Nc3ccnc(-c4cnn(S(=O)(=O)C5CNC5)c4)n3)cc2n1C(C)C [Example 467, N-(2-(1-(azetidin-3-ylsulfonyl)-1H-pyrazol-4-yl)pyrimidin-4-yl)-1-isopropyl-2-methyl-1H-imidazo[4,5-c]pyridin-6-amine]",5.77 nM
4,"CC(C)CC(C)n1c(CO)nc2cnc(Nc3ccnc(-c4cnn(S(=O)(=O)C5CC5)c4)n3)cc21 (centres unmarked) [Example 478, (6-(2-(1-(cyclopropylsulfonyl)-1H-pyrazol-4-yl)pyrimidin-4-ylamino)-1-(4-methylpentan-2-yl)-1H-imidazo[4,5-c]pyridin-2-yl)methanol]",32.4 nM
5,"CC(CC1CC1)n1c(CO)nc2cnc(Nc3ccnc(-c4cnn(S(=O)(=O)C5CC5)c4)n3)cc21 (centres unmarked) [Example 488, (1-(1-cyclopropylpropan-2-yl)-6-(2-(1-(cyclopropylsulfonyl)-1H-pyrazol-4-yl)pyrimidin-4-ylamino)-1H-imidazo[4,5-c]pyridin-2-yl)methanol]",2.17 nM
6,"COC[C@H](C)n1c(C)nc2cnc(Nc3ccnc(N4CCC(OC)CC4)n3)cc21 [Example 490, [1-((S)-2-Methoxy-1-methylethyl)-2-methyl-1H-imidazo [4,5-c]pyridin-6-yl]-[2-(4-methoxypiperidin-1-yl)pyrimidin-4-yl]amine]",746 nM
7,"COC1CCN(c2nccc(Nc3cc4c(cn3)nc(C)n4-c3ccccc3)n2)CC1 [Example 494, N-(2-(4-Methoxypiperidin-yl)pyrimidin-4-yl)-2-methyl-1-phenyl-1H-imidazo[4,5-c]pyridin-6-amine]",30.4 nM
8,"Cc1nc2cnc(Nc3ccnc(N4CCC5(CCO5)CC4)n3)cc2n1C(C)C [Example 495, N-(2-(1-Oxa-7-azaspiro[3.5]nonan-7-yl)pyrimidin-4-yl)-1-isopropyl-2-methyl-1H-imidazo[4,5-c]pyridin-6-amine]",71.7 nM
9,"Cc1nc2cnc(Nc3ccnc(NCC(C)(C)S(C)(=O)=O)n3)cc2n1C(C)C [Example 499, N^4-(1-Isopropyl-2-methyl-1H-imidazo[4,5-c]pyridin-6-yl)-N2-(2-methyl-2-(methylsulfonyl)propyl) pyrimidine-2,4-diamine]",51.7 nM
10,"Cc1nc2cnc(Nc3ccnc(N4CCC(O)CC4)n3)cc2n1C(C)C [Example 503, 1-(4-((1-Isopropyl-2-methyl-1H-imidazo[4,5-c]pyridin-6-yl)amino)pyrimidin-2-yl)piperidin-4-ol]",128 nM
11,"Cc1nc2cnc(Nc3ccnc(N4CCC5(CC4)OCCO5)n3)cc2n1C(C)C [Example 506, N-(2-(1,4-Dioxa-8-azaspiro[4.5]decan-8-yl)pyrimidin-4-yl)-1-isopropyl-2-methyl-1H-imidazo[4,5-c]pyridin-6-amine]",117 nM
12,"CC(C)n1c(CO)nc2cnc(Nc3ccnc(N4CCC(C(F)(F)F)CC4)n3)cc21 [Example 512, (1-Isopropyl-6-((2-(4-(trifluoromethyl)piperidin-1-yl)pyrimidin-4-yl)amino)-imidazo[4,5-c]pyridin-2-yl)methanol]",133 nM
13,"COC1CCN(c2nccc(Nc3cc4c(cn3)nc3n4C(C)(C)CO3)n2)CC1 [Example 532, N-(2-(4-methoxypiperidin-1-yl)pyrimidin-4-yl)-3,3-dimethyl-2,3-dihydrooxazolo[3′,2′:1,2]imidazo [4,5-c]pyridin-6-amine]",519 nM
14,"C[C@@H](O)c1nc2cnc(Nc3ccnc(N4CCC(O)C(F)C4)n3)cc2n1[C@H](C)C(F)(F)F (stereo partly drawn) [Example 542, 3-Fluoro-1-{4-[2-((R)-1-hydroxyethyl)-1-((R)-2,2,2-trifluoro-1-methylethyl)-1H-imidazo[4,5-c]pyridin-6-ylamino]pyrimidin-2-yl}-piperidin-4-ol]",101 nM
15,"Cc1nc2cnc(Nc3ccnc(N4CCC(S(C)(=O)=O)CC4)n3)cc2n1C(C)C [Example 545, (1-Isopropyl-2-methyl-1H-imidazo[4,5-c]pyridin-6-yl)-[2-(4-methanesulfonylpiperidin-1-yl)pyrimidin-4-yl]amine]",501 nM
16,"Cc1nc2cnc(Nc3ccnc(N4CCC(OC(F)F)CC4)n3)cc2n1C(C)C [Example 549, [2-(4-Difluoromethoxypiperidin-1-yl)pyrimidin-4-yl]-(1-isopropyl-2-methyl-1H-imidazo[4,5-c]pyridin-6-yl)amine]",143 nM
17,CCNc1nc2cnc(Nc3ccnc(-c4cnn(S(=O)(=O)C5CC5)c4)n3)cc2n1C(C)C [Example 556],3.85 nM
18,"CC(C)n1c([C@@H](C)O)nc2cnc(Nc3ccnc(-c4cnn(S(=O)(=O)C5CC5)c4)n3)cc21 [Example 561, (R)-1-{6-[2-(1-Cyclopropanesulfonyl-1H-pyrazol-4-yl)pyrimidin-4-ylamino]-1-isopropyl-1H-imidazo[4,5-c]pyridin-2-yl}ethanol]",1.73 nM

row,Structure (SMILES),Ki
1,"CC(C)n1c([C@H](C)O)nc2cnc(Nc3ccnc(-c4cnn(S(=O)(=O)C5CC5)c4)n3)cc21 [Example 562, (S)-1-{6-[2-(1-Cyclopropanesulfonyl-1H-pyrazol-4-yl)pyrimidin-4-ylamino]-1-isopropyl-1H-imidazo[4,5-c]pyridin-2-yl}ethanol]",14 nM
2,"CC(C)n1c(C(C)(C)O)nc2cnc(Nc3ccnc(-c4cnn(S(=O)(=O)C5CC5)c4)n3)cc21 [Example 563, 2-{6-[2-(1-Cyclopropanesulfonyl-1H-pyrazol-4-yl)pyrimidin-4-ylamino]-1-isopropyl-1H-imidazo[4,5-c]pyridin-2-yl} propan-2-ol]",11.1 nM
3,"Cc1nc2cnc(Nc3ccnc(N4CCCC(F)C4)n3)cc2n1C(C)C (centres unmarked) [Example 590, [2-(3-Fluoropiperidin-1-yl)pyrimidin-4-yl]-(1-isopropyl-2-methyl-1H-imidazo[4,5-c]pyridin-6-yl)amine]",93.5 nM
4,"Cc1nc2cnc(Nc3ccnc(N4CCC(F)CC4)n3)cc2n1C(C)C [Example 591, [2-(4-Fluoropiperidin-1-yl)pyrimidin-4-yl]-(1-isopropyl-2-methyl-1H-imidazo[4,5-c]pyridin-6-yl)amine]",55 nM
5,"Cc1nc2cnc(Nc3ccnc(N4CC[C@H](F)C4)n3)cc2n1C(C)C [Example 592, [2-((S)-3-Fluoropyrrolidin-1-yl)pyrimidin-4-yl]-(1-isopropyl-2-methyl-1H-imidazo[4,5-c]pyridin-6-yl)amine]",57.5 nM
6,"Cc1nc2cnc(Nc3ccnc(N4CC[C@@H](F)C4)n3)cc2n1C(C)C [Example 593, [2-((R)-3-Fluoropyrrolidin-1-yl)pyrimidin-4-yl]-(1-isopropyl-2-methyl-1H-imidazo[4,5-c]pyridin-6-yl)amine]",118 nM
7,"CCc1ncc(-c2nccc(Nc3cc4c(cn3)nc(C)n4C(C)C)n2)s1 [Example 595, [2-(2-Ethylthiazol-5-yl)pyrimidin-4-yl]-(1-isopropyl-2-methyl-1H-imidazo[4,5-c]pyridin-6-yl)amine]",9.62 nM
8,"Cc1nc2cnc(Nc3ccnc(-n4ccnc4)n3)cc2n1C(C)C [Example 599, (2-Imidazol-1-ylpyrimidin-4-yl)-(1-isopropyl-2-methyl-1H-imidazo[4,5-c]pyridin-6-yl)amine]",27.5 nM
9,Cc1nc2cnc(Nc3ccnc(N4CC[C@H](O)C[C@@H]4C)n3)cc2n1C(C)C [Example 600],75.8 nM
10,Cc1nc2cnc(Nc3ccnc(N4CC[C@@H](O)C[C@H]4C)n3)cc2n1C(C)C [Example 601],50.5 nM
11,"C[C@H](n1c([C@@H](C)O)nc2cnc(Nc3ccnc(OCC(C)(C)S(C)(=O)=O)n3)cc21)C(F)(F)F [Example 609, (R)-1-[6-[2-(2-Methanesulfonyl-2-methylpropoxy)pyrimidin-4-ylamino]-1-((S)-2,2,2-trifluoro-1-methylethyl)-1H-imidazo[4,5-c]pyridin-2-yl]ethanol]",13.1 nM
12,"Cc1nc2cnc(Nc3ccnc(NCC(F)(F)C(N)=O)n3)cc2n1C(C)C [Example 610, 2,2-Difluoro-3-[4-(1-isopropyl-2-methyl-1H-imidazo[4,5-c]pyridin-6-ylamino)pyrimidin-2-ylamino]propionamide]",13.2 nM
13,"CNc1nc(C)c(-c2nccc(Nc3cc4c(cn3)nc(C)n4C(C)C)n2)s1 [Example 611, (1-Isopropyl-2-methyl-1H-imidazo[4,5-c]pyridin-6-yl)-[2-(4-methyl-2-methylaminothiazol-5-yl)pyrimidin-4-yl]amine]",0.773 nM
14,"Cc1nc2cnc(Nc3ccnc(-c4cnc(N)s4)n3)cc2n1C(C)C [Example 614, [2-(2-Aminothiazol-5-yl)pyrimidin-4-yl]-(1-isopropyl-2-methyl-1H-imidazo[4,5-c]pyridin-6-yl)amine]",3.34 nM
15,"CC(C)n1c(CO)nc2cnc(Nc3ccnc(-c4cnc(N)s4)n3)cc21 [Example 615, {6-[2-(2-Aminothiazol-5-yl)pyrimidin-4-ylamino]-1-isopropyl-1H-imidazo[4,5-c]pyridin-2-yl}methanol]",3.38 nM
16,"CC(C)n1c(CO)nc2cnc(Nc3ccnc(C4=CCC(O)CC4)n3)cc21 (centres unmarked) [Example 624, 4-(4-((2-(hydroxymethyl)-1-isopropyl-1H-imidazo[4,5-c]pyridin-6-yl)amino)pyrimidin-2-yl)cyclohex-3-enol]",67.8 nM
17,"Cc1nc2cnc(Nc3ccnc(-c4cn(CC5CC5)nc4Cl)n3)cc2n1C(C)C [Example 625, N-(2-(3-Chloro-1-(cyclopropylmethyl)-1H-pyrazol-4-yl)pyrimidin-4-yl)-1-isopropyl-2-methyl-1H-imidazo[4,5-c]pyridin-6-amine]",38.6 nM
